What all share (format): cell-based
Experiment [1] has as its target NAD(P)H dehydrogenase [quinone] 1 (Mus musculus) (UniProt Q64669). As to the kind of experiment: Induction of quinone reductase activity in mouse Hepa1c1c7 cells assessed as maximum fold change at 3.1 to 100 uM incubated for 24 hrs by MTT based assay. As to conditions: dose 3.1-100 µM. (In general: Formazan colour is commonly taken as a measure of viable cells.)
Experiment [2] can be described thus: Cytotoxicity against mouse Hepa1c1c7 cells incubated for 24 hrs by MTT based assay. As to conditions: Hepa-1c1c7, 24 h.
In experiment [3] the target is NAD(P)H dehydrogenase [quinone] 1 (Mus musculus) (UniProt Q64669). Kind of experiment: Induction of quinone reductase activity in mouse Hepa1c1c7 cells assessed as maximum fold change at 50 uM incubated for 24 hrs by MTT based assay. As to conditions: filed as activator.

SMILES strings stand for the structures. Calls of active or inactive are those of the source. The calls are words filed in the database; no cut-off is given here.

Chain of NAD(P)H dehydrogenase [quinone] 1 (Mus musculus) (Q64669 whole entry): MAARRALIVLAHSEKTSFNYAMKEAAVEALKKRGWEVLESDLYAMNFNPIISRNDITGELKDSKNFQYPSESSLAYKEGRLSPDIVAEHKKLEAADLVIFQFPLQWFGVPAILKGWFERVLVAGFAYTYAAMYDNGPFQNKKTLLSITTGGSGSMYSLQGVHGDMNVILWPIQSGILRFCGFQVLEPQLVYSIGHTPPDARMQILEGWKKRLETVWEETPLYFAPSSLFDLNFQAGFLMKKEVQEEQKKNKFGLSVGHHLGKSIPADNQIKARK

What is called IC50 is the concentration needed to halve the response being measured. Higher therefore signals weaker potency. For the molecule `C=C[C@@]1(C)CC[C@@]2(C)[C@@H](CC[C@]34CO[C@H](OC)C3=C[C@@H](O)C[C@@H]42)C1`, the outcome in experiment [1] was inactive. Also, in experiment [2], the IC50 was > 50 µM.

In the case of `C=C[C@@]1(C)CC[C@]2(C)C3C[C@H]4C=C(C=O)[C@]3(CC[C@H]2C1)C(O)O4` (stereo not given in full), in experiment [3], the result was Active. Besides, the IC50 in experiment [2] was > 50 µM.

In the case of `C=C[C@@]1(C)CC[C@@]2(C)[C@@H](CC[C@]34CO[C@@H](OC)C3=C[C@@H](O)C[C@@H]42)C1`, the result in experiment [1] was inactive. The IC50 in experiment [2] is > 50 µM.

On to `C=C[C@@]1(C)CC[C@]2(C)C3C[C@H]4C=C(CO)[C@]3(CC[C@H]2C1)C(OC)O4` (stereo not given in full), for which the outcome in experiment [3] was Active. In addition, in experiment [2], the IC50 was > 50 µM.

On to `C=C[C@@]1(C)CC[C@]2(C)C3=C(CC[C@H]2C1)[C@](O)(CO)[C@@H](O)[C@H](Cl)C3`, for which the result in experiment [3] was Active. Moreover, the IC50 in experiment [2] was > 50 µM.

Regarding `CC1=C(Cc2ccccc2)C(=O)O[C@H]1Cc1ccccc1`, the outcome in experiment [1] was inactive. Also, the IC50 in experiment [2] is > 50 µM.

On to `C=C[C@@]1(C)CC[C@@]2(C)[C@@H](CC=C3[C@@H]2C[C@@H](Cl)[C@H](O)[C@@]3(O)CO)C1`, for which, in experiment [1], the outcome was inactive. In addition, the IC50 in experiment [2] is > 50 µM.

In the case of `C=C[C@@]1(C)CC[C@@]2(C)[C@@H](C[C@@H]3[C@@H](O)C4=C[C@@H](O)C[C@H]2[C@@]43C)C1`, the result in experiment [1] was inactive. Moreover, in experiment [2], the IC50 is > 50 µM.

For the molecule `C=C[C@@]1(C)CC[C@@]2(C)[C@@H](CC[C@]34COC(=O)[C@@H]3C[C@H](O)C[C@H]24)C1`, the outcome in experiment [3] was Active. In addition, the IC50 in experiment [2] was > 50 µM.

In the case of `C=C[C@@]1(C)CC[C@@]2(C)[C@@H](CC[C@@]3(C)[C@@H]2CCC(=O)[C@@H]3C)C1`, the result in experiment [1] was inactive. The IC50 in experiment [2] was > 50 µM.

Source of the values: ChEMBL document CHEMBL5034030, “Dolabrane Diterpenoids from the Chinese Liverwort Notoscyphus lutescens” (J Nat Prod, 2021).
